In patent US20240408008A1, “AN IN-SITU GELLING ENEMA OF RIFAMYCIN FOR TREATING POUCHITIS AND DISTAL ULCERATIVE COLITIS” (COSMO TECHNOLOGIES LTD., priority 2021, published 2024):

Legend:
mTOR pathway = assay: Inhibition of mTOR and S6R phosphorylation in primary colonic epithelial cells, flow cytometry; type: cell-based, human; conditions: Homo sapiens, Epithelial cell; serum stimulated primary colonic epithelial cells, 48 hr; read-out: IC50, % cells positive for anti-pmTOR and anti-pS6R relative to DMSO
Protocol: To evaluate Rifamycin activity on the mTOR pathway, primary colonic epithelial cells were serum starved for 24 hr and restimulated with serum for 48 hr to induce phosphorylation of mTOR and its downstream target protein […]. Serum stimulated cells were treated with Rifamycin SV, Rifaximin, the positive control Rapamycin, or the negative vehicle control DMSO. Cells were fixed, stained with antibodies against pmTOR and pS6R then analyzed by flow cytometry.

DSS induced colitis = assay: Acute colitis induced by Dextran Sulfate Sodium (DSS); type: in vivo; conditions: mice, DSS 2%, PO 100 mg/Kg
Protocol: In situ gel enema formulation batch 7663 (same formulation as batch 7639) in vivo efficacy was tested in a murine model of acute colitis induced by Dextran Sulfate Sodium (DSS). This animal model is perhaps the most widely used mouse model of colitis and employs DSS, a chemical colitogen with anticoagulant properties, to induce disease which closely resembles human UC. DSS induced intestinal inflammation results in damage to the epithelial monolayer lining the large intestine allowing the dissemination of proinflammatory intestinal contents (e.g. bacteria and their products) into underlying tissue.
For this study, a group of mice was treated by enema with Batch 7663 (indicated as CB0125 in the figures) (dose 45 mg/kg), one group was treated by enema with Placebo Batch 7679 as a comparator for 7663; a group was treated by enema with Rifamycin powder dissolved in water (67 mg/kg). One group of mice was treated orally PO with 5-ASA at the dose of 100 mg/Kg; this group was introduced as positive control. 5-ASA is the golden standard therapy for inflammatory bowel diseases, including UC, distal UC and proctitis. One group was treated by enema with the vehicle (H2O) only, as negative control.
Briefly DSS (2%) was dissolved in water (w/v) and given to mice in place of normal drinking water. DSS water was provided ad libitum for 5 days and was changed daily. This period was followed by a washout period of 5 days with water only. Mice were weighed daily and monitored for clinical status including hunching, mobility, soft stool and/or diarrhoea. At end of the study mice were sacrificed by CO2 inhalation. Immediately after euthanasia, the animals were laparatomyzed and intestine was exteriorized. The entire colon was isolated from the caecum to the anus, placed unstretched on a ruler and then measured and weighed after rinsing the lumen with saline. The weight was normalized to the colon length by calculating the ratio.
For histological analysis of colon samples, about 2 cm of the middle portion of isolated colon was fixed in a 10% formalin. Each fixed fragment was embedded in paraffin. The slides were stained with haematoxylin and eosin and assessed according to the histological score.

| SMILES | IC50 (mTOR pathway) | histological score (DSS induced colitis; compared to 7663) | clinical score AUC (DSS induced colitis; compared to batch 7663) |
| --- | --- | --- | --- |
| CO[C@H]1C[C@@H]2CC[C@@H](C)[C@@](O)(O2)C(=O)C(=O)N2CCCC[C@H]2C(=O)O[C@H]([C@H](C)C[C@@H]2CC[C@@H](O)[C@H](OC)C2)CC(=O)[C@H](C)/C=C(\C)[C@@H](O)[C@@H](OC)C(=O)[C@H](C)C[C@H](C)/C=C/C=C/C=C/1C [Rapamycin] | 0.53 µM |  |  |
| Nc1ccc(O)c(C(=O)O)c1 [Batch 5-ASA, 5-aminosalycilic acid] |  | lower improvement | lower efficacy |
| CO[C@H]1/C=C/O[C@@]2(C)Oc3c(C)c(O)c4c(O)c(c5c(nc6cc(C)ccn65)c4c3C2=O)NC(=O)/C(C)=C\C=C\[C@H](C)[C@H](O)[C@@H](C)[C@@H](O)[C@@H](C)[C@H](OC(C)=O)[C@@H]1C [Rifaximin] | 43 µM |  |  |
